Measurements: patent EP4786485A1, “STRAIGHT CHAIN PEPTIDE COMPOUND AND USE THEREOF” (Shenzhen Zhongge Biological Technology Co., Ltd., priority 2023, dated 2026)
Where a SMILES comes first, the peptide text is derived from it. [ ]: non-standard residue; d: D form. The star is where a group is joined. Biotin = O=C1N[C@H]2[C@H](CS[C@H]2CCCCC(=O)*)N1; Phe(3,4-Cl2) = N[C@@H](Cc1ccc(Cl)c(Cl)c1)C(=O)O; Lys(Me3) = C[N+](C)(C)CCCC[C@H](N)C(=O)O; Phe(4-Me) = Cc1ccc(C[C@H](N)C(=O)O)cc1; Palmitoyl = CCCCCCCCCCCCCCCC(=O)*; Ahp = NCCCCCCC(=O)O; βAla = NCCC(=O)O

Legend:
Type in all cases: cell-based, Human
[1] = tested on: Collagen I (type I collagen); assay: ELISA: effect of increasing the content of Collagen I in fibroblasts; set-up: Effect of increasing the content of Collagen I in the fibroblasts: unit not given here; conditions: 1 µM, 24 h; for Effect of increasing the content of Collagen I in the fibroblasts: human-derived fibroblasts, ELISA, blank control BC = 35.6; for increase in the content of type I collagen (Collagen I): in words, compared to the BC, fibroblasts
Experimental: (§1) B. Effects of increasing the contents of Collagen I (type I collagen), hyaluronic acid (HA), and Elastin (ELN) in fibroblasts
(§2) Test materials: Human-derived fibroblasts (Guangdong BioCell Biotechnology Co., Ltd., Lot No. Fb20081902), DMEM culture medium (Gibco, 23042301, expiration date 230522), PBS (Solarbio, P1010), TGF-β1 (Peprotech, 230504), Collagen I ELISA Kit (Cusabio, B21025824), Elastin ELISA Kit (Abcam, GR3446070-2), HA ELISA Kit (RD, P325066), CO2 incubator (Thermo, 150I), super-clean bench (AIRTECH, SW-CJ-1F), and microplate reader (BioTek, Epoch).
(§3) Test methods: • 1) Inoculation: After cell resuscitation, the cells were inoculated into 6-well plates when the plating rate reached around 60%, and were incubated overnight in an incubator (37°C, 5% CO2). • 2) Formulation of solutions: The linear peptide compounds in the sample groups, and PC2 (Biotinoyl-GHK, [drawing 69] ) and PC3 ( [drawing 70] ) in the positive control group were all at the concentration of 1 µM, and the test substance working solutions were formulated. • 3) Administration: When the cell plating rate in the 6-well plates reached 40% to 60%, administration was performed at 2 mL per well. Three duplicate wells were set for each group. Incubation was performed in an incubator (37°C, 5% CO2) for 24 h. • 4) ELISA assay: The ELISA assays were performed according to the instructions of the respective ELISA kits, with the detection indicators being effect of increasing the content of Collagen I in the fibroblasts, effect of increasing the content of HA in the fibroblasts, and effect of increasing the content of Elastin in the fibroblasts, respectively.

[2] = tested on: Elastin (ELN); assay: ELISA: effect of increasing the content of Elastin in fibroblasts; set-up: Effect of increasing the content of Elastin in the fibroblasts: unit not given here; conditions: 1 µM; for Effect of increasing the content of Elastin in the fibroblasts: 24 h incubation, ELISA, blank control (BC) 756.52; for increase in the content of Elastin: in words, compared to the BC, 24 h, fibroblasts
Experimental: as §1, §2, §3

[3] = tested on: hyaluronic acid (HA); assay: ELISA: effect of increasing the content of HA in fibroblasts; set-up: Effect of increasing the content of HA in the fibroblasts: unit not given here; conditions: 1 µM, 24 h; for Effect of increasing the content of HA in the fibroblasts: human-derived fibroblasts, ELISA, blank control BC = 1402.44; for increase in the content of hyaluronic acid (HA): in words, compared to the BC, fibroblasts
Experimental: as §1, §2, §3

Row | Compound | Effect of increasing the content of Collagen I in the fibroblasts [1] | increase in the content of type I collagen (Collagen I) [1] | Effect of increasing the content of Elastin in the fibroblasts [2] | increase in the content of Elastin [2] | Effect of increasing the content of HA in the fibroblasts [3] | increase in the content of hyaluronic acid (HA) [3]
1 | CNC(=O)[C@H](CCCCN)NC(=O)[C@H](Cc1c[nH]cn1)NC(=O)CNC(=O)CCCCCCNC(=O)[C@H](CCCCN)NC(=O)[C@H](Cc1c[nH]cn1)NC(=O)CNC(C)=O [compound 6] (Ac-GHK[Ahp]GHK-NHMe) | 44.54 | significant increase | 1070.92 | significant increase |  | 
2 | CNC(=O)[C@H](CCCCN)NC(=O)[C@H](Cc1c[nH]cn1)NC(=O)CNC(=O)CCNC(=O)CCNC(=O)[C@H](CCCCN)NC(=O)[C@H](Cc1c[nH]cn1)NC(=O)CNC(C)=O [compound 21] (Ac-GHK[βAla][βAla]GHK-NHMe) |  |  | 1160.14 | significant increase | 2423.11 | significant increase
3 | CNC(=O)[C@H](CCCCN)NC(=O)[C@H](Cc1c[nH]cn1)NC(=O)CNC(=O)[C@H](C)NC(=O)[C@H](C)NC(=O)[C@H](C)NC(=O)[C@H](CCCCN)NC(=O)[C@H](Cc1c[nH]cn1)NC(=O)CNC(C)=O [compound 23] (Ac-GHKAAAGHK-NHMe) | 46.06 | significant increase | 1097.64 | significant increase | 2533.64 | significant increase
4 | CCCCCCCCCCCCCCCC(=O)NCCCCCCC(=O)N[C@@H](CCCCN)C(=O)N[C@@H](Cc1c[nH]cn1)C(=O)NCC(=O)O [compound 224] ({Palmitoyl-Ahp}-Lys-His-Gly-OH) | 56.19 | significant increase | 932.65 | significant increase |  | 
5 | NCCCC[C@H](NC(=O)CCCCCCNC(=O)CCCC[C@@H]1SC[C@@H]2NC(=O)N[C@@H]21)C(=O)N[C@@H](Cc1c[nH]cn1)C(=O)NCC(N)=O [compound 242] ({Biotin-Ahp}-Lys-His-Gly-NH2) | 70.24 | significant increase | 1159.72 | significant increase |  | 
6 | C[N+](C)(C)CCCC[C@H](NC(=O)CCCC[C@@H]1SC[C@@H]2NC(=O)N[C@@H]21)C(=O)NCCCCCCC(=O)NCC(=O)N[C@@H](Cc1c[nH]cn1)C(=O)N[C@@H](CCCCNC(=O)[C@@H]1CCCN1)C(N)=O [compound 265] (Biotin-[Lys(Me3)][Ahp]GHK(Pro)-NH2) | 56.34 | significant increase | 1008.26 | significant increase |  | 
7 | C[C@H](NC(=O)[C@H](Cc1ccc(Cl)c(Cl)c1)NC(=O)CCCC[C@@H]1SC[C@@H]2NC(=O)N[C@@H]21)C(=O)N[C@@H](CCCCN)C(=O)N[C@@H](Cc1c[nH]cn1)C(=O)NCC(=O)N[C@@H](CCCC[N+](C)(C)C)C(N)=O [compound 419] (Biotin-[Phe(3,4-Cl2)]AKHG[Lys(Me3)]-NH2) | 109.96 | significant increase | 1015.58 | significant increase |  | 
8 | CCCCCCCCCCCCCCCC(=O)N[C@@H](CCCC[N+](C)(C)C)C(=O)NCC(=O)N[C@@H](Cc1c[nH]cn1)C(=O)N[C@@H](CCCCN)C(=O)N[C@@H](C)C(=O)N[C@@H](Cc1ccc(C)cc1)C(=O)O [compound 424] (Palmitoyl-[Lys(Me3)]GHKA[Phe(4-Me)]-OH) | 97.9 | significant increase | 897.36 | significant increase |  | 
